Assay results: the RepoRT retention time repository

Assay: HILIC, Waters ACQUITY UPLC BEH Amide, 100 × 2.1 mm, 1.7 µm; A: water + 0.125% formic acid + 10 mM ammonium formate; B: 5% water + 95% acetonitrile + 0.125% formic acid + 10 mM ammonium formate; gradient (min/%B) 0/100 2/100 7.7/70 9.5/40 10.25/30 12.75/100 17/100
Conditions: stereoisomer not certain

LC retention time [min]	Structure (SMILES)
6.79	CNC(Cc1ccc(O)cc1)C(=O)O (stereo unspecified) [N-Methyltyrosine]
1.1	O=C(C=CC=Cc1ccc2c(c1)OCO2)N1CCCCC1 [Piperine]
4.76	CCCc1nc(C(C)(C)O)c(C(=O)O)n1Cc1ccc(-c2ccccc2-c2nn[nH]n2)cc1 [Olmesartan]
8.06	NC(CCOC(=O)CCC(=O)O)C(=O)O (stereo unspecified) [O-Succinylhomoserine]
3.73	CCCC(=O)NCC(=O)O [Butyrylglycine]
8.92	NC(CS(=O)(=O)O)C(=O)O (stereo unspecified) [Cysteic acid]
1.14	COc1cc(C=CC=O)ccc1O [Coniferylaldehyde]
3.36	CC(C)CCCC(C)C1CCC2C3C(O)C=C4CC(O)CCC4(C)C3CCC12C (stereo not drawn) [5-Cholesten-3-beta-7-alpha-diol]
8.99	NCCCCCN [Cadaverine]
8.05	OCC1OC(OC2(CO)OC(CO)C(O)C2O)C(O)C(O)C1O (stereo unspecified) [Sucrose]
5.04	COc1cc(C(=O)NC2CCCNC2)cc(OC)c1OC (stereo unspecified) [Troxipide]
7.48	NC(Cc1c[nH]c2ccc(O)cc12)C(=O)O (stereo unspecified) [5-Hydroxytryptophan]
9.72	NC(Cc1ccc(OP(=O)(O)O)cc1)C(=O)O (stereo unspecified) [Phosphotyrosine]
1.88	CCc1nn(CCCN2CCN(c3cccc(Cl)c3)CC2)c(=O)n1CCOc1ccccc1 [Nefazodone]
2.74	CNC1CCC(c2ccc(Cl)c(Cl)c2)c2ccccc21 (stereo unspecified) [Sertraline]
1.5	O=C(CCc1ccc(O)cc1)c1c(O)cc(O)cc1O [Phloretin]

LC retention time [min]	Structure (SMILES)
2.99	O=C(O)C=Cc1ccc(Cn2ccnc2)cc1 [Ozagrel]
1.78	CC(C)N=c1cc2n(-c3ccc(Cl)cc3)c3ccccc3nc-2cc1Nc1ccc(Cl)cc1 [Clofazimine]
8.31	CC(=O)NC(CCCN)C(=O)O [N-alpha-Acetyl-L-ornithine]
3.23	CSCCC(NC(C)=O)C(=O)O (stereo unspecified) [N-Acetylmethionine]
4.53	c1c[nH]cn1 [Imidazole]
2.01	O=C(O)c1cc(N=Nc2ccc(S(=O)(=O)Nc3ccccn3)cc2)ccc1O [Sulfasalazine]
4.05	O=C1c2cccc3c2C(CCC3)CN1C1CN2CCC1CC2 (stereo unspecified) [Palonosetron]
8.98	NC(CCC(=O)NC(CS)C(=O)O)C(=O)O (stereo unspecified) [gamma-Glutamyl-cysteine]
4.45	NNCCc1ccccc1 [Phenelzine]
3.38	CN(CCOc1ccc(NS(C)(=O)=O)cc1)CCc1ccc(NS(C)(=O)=O)cc1 [Dofetilide]
8.16	CC(=O)NC(CCCN=C(N)N)C(=O)O [N-.alpha.-Acetyl-L-arginine]
7.3	O=C1CCC(C(=O)N2CSCC2C(=O)O)N1 (stereo unspecified) [Pidotimod]
9.44	CC(O)C(NC(=O)C(N)CCC(=O)O)C(=O)O (stereo unspecified) [Glu-Thr]
0.99	CCCCCCCCCCCCCCCCCC(=O)OCC(O)CO (stereo unspecified) [1-Monostearin]
4.24	CN1CCCCC1CCN1c2ccccc2Sc2ccc(S(C)=O)cc21 (stereo unspecified) [Mesoridazine]
1.04	CCS(=O)(=O)CCn1c([N+](=O)[O-])cnc1C [Tinidazole]

The next lines start with the compound.

Structure (SMILES)	LC retention time [min]
CC(C(=O)O)c1ccc(CC2CCCC2=O)cc1 (stereo unspecified) [Loxoprofen]	1.09
CC(C)C(=O)O [Isobutyric acid]	1.77
CCC1(CC)C(=O)NCC(C)C1=O (stereo unspecified) [Methyprylon]	1.18
NC1CCN(c2nc3c(cc2F)c(=O)c(C(=O)O)cn3-c2ccc(F)cc2F)C1 (stereo unspecified) [Tosufloxacin]	4.87
CN1C(=O)C(O)CC1c1cccnc1 (stereo not drawn) [trans-3'-Hydroxycotinine]	2.02
COc1cc2ccc(=O)oc2cc1O [Scopoletin]	1.16
CN(CCO)CC(O)Cn1cnc2c1c(=O)n(C)c(=O)n2C (stereo unspecified) [Xanthinol]	6.01
CN1C2CCC1CC(OC(=O)c1c[nH]c3ccccc13)C2 (stereo unspecified) [Tropisetron]	3.81
CC(C)CC(NC(=O)C(C)N)C(=O)O (stereo unspecified) [Ala-Leu]	7.6
CN1CCC(c2ccc(F)cc2)C(COc2ccc3c(c2)OCO3)C1 (stereo unspecified) [N-Methylparoxetine]	2.2
COC1C(O)C(CO)OC1n1cnc2c(=O)[nH]cnc21 (stereo unspecified) [2'-O-Methylinosine]	4.06
CCCCc1nc(Cl)c(CO)n1Cc1ccc(-c2ccccc2-c2nn[nH]n2)cc1 [Losartan]	1.27
O=c1ccn(C2CC(O)C(CO)O2)c(=O)[nH]1 (stereo unspecified) [2-Deoxyuridine]	2.96
CC(C)(O)CC(=O)O [beta-Hydroxyisovaleric acid]	4.55
CC(=O)NC(Cc1ccccc1)C(=O)O (stereo unspecified) [N-Acetylphenylalanine]	2.61
COc1ccc2c3c1OC1C(=O)CCC4C(C2)N(C)CCC314 (stereo unspecified) [Hydrocodone]	3.8
CC(c1cc2ccccc2s1)N(O)C(N)=O (stereo unspecified) [Zileuton]	1.23
O=C1CN=C(c2ccccn2)c2cc(Br)ccc2N1 [Bromazepam]	1.3
Cc1nnc2n1-c1ccc(Cl)cc1C(c1ccccc1)=NC2 [Alprazolam]	1.34
NC(CO)C(=O)NC(CCC(=O)O)C(=O)O (stereo unspecified) [Ser-Glu]	9.65

Structure (SMILES)	LC retention time [min]
CN1CCN(c2nc3cc(C(F)(F)F)ccc3n3cccc23)CC1	2.21
CCOc1cc(CC(=O)NC(CC(C)C)c2ccccc2N2CCCCC2)ccc1C(=O)O (stereo unspecified) [Repaglinide]	1.01
NC(CCO)C(=O)O (stereo unspecified) [Homoserine]	8.29
CC1(C)CC1C(=O)NC(=CCCCCSCC(N)C(=O)O)C(=O)O (stereo unspecified) [Cilastatin]	7.63
CC(=O)OCC=C(C)CCC=C(C)C [Nerylacetate]	0.99
CN(CCOc1ccc(CC2SC(=O)NC2=O)cc1)c1ccccn1 (stereo unspecified) [Rosigltazone]	1.24
O=c1ccn(C2OC(CO)C(O)C2O)c(=S)[nH]1 (stereo unspecified) [2-Thiouridine]	2.48
Cc1cccc(C)c1NC(=O)C1CCCCN1C (stereo unspecified) [Mepivacaine]	2.96
CCOC(=O)OC1(C(=O)OCCl)CCC2C3CCC4=CC(=O)C=CC4(C)C3C(O)CC21C (stereo unspecified) [Loteprednol Etabonate]	0.97
O=P(O)(O)OCC1OC(O)C(O)C(O)C1O (stereo unspecified) [Glucose-6-phosphate]	9.86
CC12CCC3C(CCC4=CC(=O)CCC43C)C1CCC2=O (stereo unspecified) [Androstenedione]	1.09
CC12Cc3cn[nH]c3CC1CCC1C2CCC2(C)C1CCC2(C)O (stereo unspecified) [Stanozolol]	1.19
Cn1cnc2c(ncn2C2OC(CO)C(O)C2O)c1=N (stereo unspecified) [1-Methyladenosine]	7.46
Cn1c(=O)c2c(ncn2C)n(C)c1=O [Caffeine]	1.21
Nc1ccccc1S(=O)(=O)O [Orthanilic acid]	2.52
CSCCC(NC=O)C(=O)O (stereo unspecified) [N-Formylmethionine]	3.93
CC(=O)OC1CC2CCC3C(CCC4(C)C3CC([N+]3(C)CCCCC3)C4OC(C)=O)C2(C)CC1N1CCCCC1 (stereo unspecified) [Vercuronium]	5.53
O=C1OC(C(O)CO)C(O)=C1O (stereo unspecified) [Ascorbic acid]	1.44
O=C(O)CNC(=O)c1cccnc1 [Nicotinoylglycine]	7.08
CCC1(O)CC2CN(CCc3c([nH]c4ccccc34)C(C(=O)OC)(c3cc4c(cc3OC)N(C)C3C(O)(C(N)=O)C(O)C5(CC)C=CCN6CCC43C65)C2)C1 (stereo unspecified) [Vindesine]	5.76

Structure (SMILES)	LC retention time [min]
O=C1CN=C(c2ccccc2)c2cc(Cl)ccc2N1CC1CC1 [Prazepam]	1.07
COC(=O)C1C(O)CC2CCC1N2C (stereo unspecified) [Ecgonine methylester]	4.18
O=C(O)C1CCC(C(=O)O)CC1 (stereo unspecified) [1,4-Cyclohexanedicarboxylic acid]	1.56
O=c1[nH]c(=O)c2nccnc2[nH]1 [Lumazine]	2.49
COc1cc(N)c(Cl)cc1C(=O)NC1CCN(CCCOc2ccc(F)cc2)CC1OC (stereo unspecified) [Cisapride]	2.28
CCC1=C(C)CN(C(=O)NCCc2ccc(S(=O)(=O)NC(=O)NC3CCC(C)CC3)cc2)C1=O (stereo unspecified) [Glimepiride]	1.05
CNCCCCOc1ccccc1Cc1ccccc1 [Bifemelane]	2.46
NC(CCC(=O)NC(Cc1ccc(O)cc1)C(=O)O)C(=O)O (stereo unspecified) [gamma-Glutamyltyrosine]	8.52
CC(C)c1ccc2oc3nc(N)c(C(=O)O)cc3c(=O)c2c1 [Amlexanox]	1.81
O=c1n(CCCN2CCN(c3cccc(Cl)c3)CC2)nc2ccccn12 [Trazodone]	2.38
CC1OC(OC2C(Oc3cc(O)c4c(c3)OC(c3ccc(O)cc3)CC4=O)OC(CO)C(O)C2O)C(O)C(O)C1O (stereo unspecified) [Naringin]	5.61
O=C(O)COCCN1CCN(C(c2ccccc2)c2ccc(Cl)cc2)CC1 (stereo unspecified) [Levocetirizine]	2.9
CC(=O)CCCCn1c(=O)c2c(ncn2C)n(C)c1=O [Pentoxifylline]	1.09
CC(C)CC(N)C(=O)NC(C)C(=O)O (stereo unspecified) [Leu-Ala]	5
CC(C)C1CCC(C(=O)NC(Cc2ccccc2)C(=O)O)CC1 (stereo unspecified) [Nateglinide]	1.3
CS(=O)CCCCC(=NO)SC1OC(CO)C(O)C(O)C1O (stereo unspecified) [Desulfo Glucoraphanin]	6.61
NC(N)=NCCCC(N)C(=O)NCC(=O)O (stereo unspecified) [Arg-Gly]	9.85
O=C1Nc2ccc(Cl)cc2C(c2ccccc2Cl)=NC1O (stereo unspecified) [Lorazepam]	1.33
CCOC(=O)OC(C)OC1=C(C(=O)Nc2ccccn2)N(C)S(=O)(=O)c2ccccc21 (stereo unspecified) [Ampiroxicam]	0.95
